Experimental findings from ChEMBL document CHEMBL4706713, “Speeding drug discovery targeting RNAs: An iterative "RNA selection-compounds screening cycle" for exploring RNA-small molecule pairs” (Bioorg Med Chem, 2021) are described below.

Experiment [1] is described as follows: Binding affinity to 5'-Biotinylated pre-let-7f-2-loop-mt RNA (unknown origin) by SPR analysis.
A short description of experiment [2]: Binding affinity to R2-RNA (unknown origin) by SPR analysis.
Experiment [3] can be described thus: Binding affinity to 5'-Biotinylated pre-let-7f-2 RNA (unknown origin) by SPR analysis.
Experiment [4] can be described thus: Binding affinity to R1-RNA internal loop mutant1 (unknown origin) by SPR analysis.
Experiment [5] is described as follows: Binding affinity to R1-RNA internal loop (unknown origin) by SPR analysis.
The nature of experiment [6]: Binding affinity to R1-RNA internal loop mutant3 (unknown origin) by SPR analysis.
A short description of experiment [7]: Binding affinity to R1-RNA internal loop mutant2 (unknown origin) by SPR analysis.
A short description of experiment [8]: Binding affinity to R1-RNA hairpin loop (unknown origin) by SPR analysis.
Experiment [9] in a line: Binding affinity to 5'-Biotinylated pre-let-7f-2-loop-mt RNA (unknown origin) at 25 uM by SPR analysis.
Experiment [10] in a line: Binding affinity to R1-RNA internal loop mutant4 (unknown origin) by SPR analysis.
A short description of experiment [11]: Binding affinity to R1-RNA (unknown origin) by SPR analysis.

SMILES strings stand for the structures. The source made the active and inactive calls. The calls are words filed in the database; no cut-off is given here.

As for `COCC1CCN(c2ncc3c(NC(=O)Nc4cnccc4C(=O)NC(C)C)nn(C)c3n2)C1` (configuration not stated), the result in experiment [1] was inactive.
Take `Cn1nc(NC(=O)Nc2cnccc2C(=O)N[C@@H](CO)CCCCN)c2cnc(N3CC(F)(F)C(F)(F)C3)nc21`: the outcome in experiment [2], in experiment [3], in [4], in experiment [6], in experiment [7] and in experiment [8] was inactive. In experiment [10], the result was inactive. In addition, the result in experiment [1], in [5], in experiment [9] and in [11] was Active.
For the compound `CC(C)NC(=O)c1ccncc1NC(=O)Nc1nn(C)c2nc(N3CCCC3)ncc12`, in experiment [1], the outcome was inactive.
Compound `CC(C)NC(=O)c1ccncc1NC(=O)Nc1nn(C)c2nc(Cl)ncc12` displayed a Kd in experiment [1] of 17.8 µM. The outcome in experiment [9] was Active.
Consider `CC(C)NC(=O)c1ccncc1NC(=O)Nc1nn(C)c2nc(N3CCC(CN(C)C)C3)ncc12` (configuration not stated), for which the outcome in [9] was Active.
`CC(C)NC(=O)c1ccncc1NC(=O)Nc1nn(C)c2nc(N3CCC(N(C)C)C3)ncc12` (configuration not stated): in experiment [9], the outcome was Active.
